Laboratory results taken from ChEMBL document CHEMBL3098059, “Identification by in silico and in vitro screenings of small organic molecules acting as reversible inhibitors of kallikreins” (Eur J Med Chem, 2013).
Calls of active or inactive are those of the source. The calls are words filed in the database; no cut-off is given here.

Columns and labels:
[1] = Cytotoxicity against human keratinocytes assessed as cell viability at 1 uM after 24 to 48 hrs by neutral red assay; format: cell-based; conditions: keratinocyte
[2] = Cytotoxicity against human keratinocytes assessed as cell viability at 10 uM after 24 to 48 hrs by neutral red assay; format: cell-based, Keratinocyte; conditions: keratinocyte, 10 µM
Kallikrein-7 [3] = molecular target: T1, Kallikrein-7 (Homo sapiens, UniProt P49862); experiment: Ratio of Ki for mixed-type inhibition of human kallikrein7 assessed as enzyme-substrate-inhibitor complex to Ki for mixed-type inhibition of human kallikrein7 assessed as enzyme-inhibitor complex
Target sequence in this assay (P49862 30-253 limits assumed): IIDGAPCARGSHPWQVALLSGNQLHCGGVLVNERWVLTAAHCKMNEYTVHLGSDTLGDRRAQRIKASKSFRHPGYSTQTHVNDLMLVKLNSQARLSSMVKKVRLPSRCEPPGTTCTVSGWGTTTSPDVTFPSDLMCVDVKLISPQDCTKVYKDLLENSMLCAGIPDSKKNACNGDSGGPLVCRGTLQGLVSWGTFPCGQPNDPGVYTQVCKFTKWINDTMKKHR

Kallikrein-7 [4] = molecular target: T1, Kallikrein-7; experiment: Mixed-type inhibition of human kallikrein7 using Suc-Leu-Leu-Val-Tyr-AMC as substrate assessed as enzyme-substrate-inhibitor complex after 15 to 60 mins by Lineweaver-Burk/Eadie-Hofstee plot analysis
Target sequence in this assay (P49862 whole entry): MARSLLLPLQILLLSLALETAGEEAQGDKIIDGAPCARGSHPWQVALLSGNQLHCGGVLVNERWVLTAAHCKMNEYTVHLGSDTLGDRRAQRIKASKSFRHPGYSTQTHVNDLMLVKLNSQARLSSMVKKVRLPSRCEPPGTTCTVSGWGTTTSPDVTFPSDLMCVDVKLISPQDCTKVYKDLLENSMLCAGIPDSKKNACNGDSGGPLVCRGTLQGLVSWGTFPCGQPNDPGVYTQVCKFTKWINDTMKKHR

Kallikrein-7 [5] = molecular target: T1, Kallikrein-7; experiment: Mixed-type inhibition of human kallikrein7 using Suc-Leu-Leu-Val-Tyr-AMC as substrate assessed as enzyme-inhibitor complex after 15 to 60 mins by Lineweaver-Burk/Eadie-Hofstee plot analysis
Target sequence in this assay (P49862 whole entry): as above

[6] = molecular target: Kallikrein-5 (Homo sapiens) (UniProt Q9Y337); experiment: Competitive inhibition of human kallikrein5 using Boc-Val-Pro-Arg-AMC as substrate at 50 uM after 15 to 60 mins by Lineweaver-Burk/Eadie-Hofstee plot analysis
[7] = molecular target: T2, Suppressor of tumorigenicity 14 protein (Homo sapiens) (UniProt Q9Y5Y6); experiment: Reversible inhibition of matriptase (unknown origin) using Boc-Gln-Ala-Arg-AMC as substrate after 15 to 60 mins by fluorescence assay
T2 sequence (whole entry): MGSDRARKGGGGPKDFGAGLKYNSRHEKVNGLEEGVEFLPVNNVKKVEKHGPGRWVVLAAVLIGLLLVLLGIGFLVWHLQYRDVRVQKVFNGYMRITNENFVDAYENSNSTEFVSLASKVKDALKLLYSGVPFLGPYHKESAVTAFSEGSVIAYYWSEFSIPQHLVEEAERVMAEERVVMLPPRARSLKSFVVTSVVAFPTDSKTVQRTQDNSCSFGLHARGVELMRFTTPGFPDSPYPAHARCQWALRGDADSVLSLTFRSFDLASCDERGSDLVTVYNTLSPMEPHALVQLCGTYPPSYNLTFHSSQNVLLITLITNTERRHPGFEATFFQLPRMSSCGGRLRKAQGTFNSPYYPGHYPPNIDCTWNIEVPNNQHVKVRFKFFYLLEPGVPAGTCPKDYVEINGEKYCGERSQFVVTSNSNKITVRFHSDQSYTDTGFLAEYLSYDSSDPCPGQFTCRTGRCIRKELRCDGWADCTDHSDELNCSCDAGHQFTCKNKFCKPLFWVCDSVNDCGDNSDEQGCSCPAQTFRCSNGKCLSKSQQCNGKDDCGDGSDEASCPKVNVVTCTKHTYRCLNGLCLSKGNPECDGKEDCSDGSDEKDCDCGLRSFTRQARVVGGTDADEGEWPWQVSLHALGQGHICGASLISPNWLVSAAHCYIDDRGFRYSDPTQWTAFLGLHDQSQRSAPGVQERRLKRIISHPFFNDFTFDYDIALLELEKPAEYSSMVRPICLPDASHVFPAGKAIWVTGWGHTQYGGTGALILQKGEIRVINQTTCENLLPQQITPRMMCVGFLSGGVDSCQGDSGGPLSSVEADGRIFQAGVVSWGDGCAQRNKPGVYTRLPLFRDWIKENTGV

[8] = molecular target: T3, Kallikrein-14 (Homo sapiens) (UniProt Q9P0G3); experiment: Reversible inhibition of human kallikrein14 using Boc-Val-Pro-Arg-AMC as substrate after 15 to 60 mins by fluorescence assay
T3 sequence (whole entry): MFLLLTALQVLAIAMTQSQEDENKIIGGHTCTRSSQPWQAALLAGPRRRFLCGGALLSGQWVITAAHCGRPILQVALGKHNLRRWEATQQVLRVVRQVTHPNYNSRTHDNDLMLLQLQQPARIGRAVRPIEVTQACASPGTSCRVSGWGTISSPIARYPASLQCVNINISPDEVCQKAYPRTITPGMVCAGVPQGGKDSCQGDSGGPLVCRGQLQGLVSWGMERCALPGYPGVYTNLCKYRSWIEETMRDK

Kallikrein-7 [9] = molecular target: T1, Kallikrein-7; experiment: Reversible inhibition of human kallikrein7 using Suc-Leu-Leu-Val-Tyr-AMC as substrate after 15 to 60 mins by fluorescence assay
Target sequence in this assay (P49862 30-253 limits assumed): as the sequence (P49862 30-253 limits assumed) above

[10] = molecular target: Kallikrein-5 (Homo sapiens) (UniProt Q9Y337); experiment: Reversible inhibition of human kallikrein5 using Boc-Val-Pro-Arg-AMC as substrate after 15 to 60 mins by fluorescence assay
[11] = molecular target: T4, Suppressor of tumorigenicity 14 protein (Homo sapiens, UniProt Q9Y5Y6); experiment: Inhibition of matriptase (unknown origin) using Boc-Gln-Ala-Arg-AMC as substrate after 15 mins by fluorescence assay
T4 sequence (Q9Y5Y6 whole entry): T2 sequence (whole entry)

Kallikrein-14 = molecular target: T5, Kallikrein-14 (Homo sapiens, UniProt Q9P0G3); experiment: Inhibition of human kallikrein14 using Boc-Val-Pro-Arg-AMC as substrate after 15 mins by fluorescence assay
T5 sequence (Q9P0G3 whole entry): T3 sequence (whole entry)

Kallikrein-7 [12] = molecular target: T1, Kallikrein-7; experiment: Inhibition of human kallikrein7 using Suc-Leu-Leu-Val-Tyr-AMC as substrate after 15 mins by fluorescence assay
Target sequence in this assay (P49862 whole entry): as the sequence (P49862 whole entry) above

[13] = molecular target: Kallikrein-5 (Homo sapiens) (UniProt Q9Y337); experiment: Inhibition of human kallikrein5 using Boc-Val-Pro-Arg-AMC as substrate at 50 uM after 15 mins by fluorescence assay
[14] = Cytotoxicity against human keratinocytes assessed as cell viability at 100 uM after 24 to 48 hrs by neutral red assay; format: cell-based; conditions: keratinocyte
[15] = molecular target: T2, Suppressor of tumorigenicity 14 protein (Homo sapiens); experiment: Inhibition of matriptase (unknown origin) using Boc-Gln-Ala-Arg-AMC as substrate at 50 uM after 15 mins by fluorescence assay
[16] = molecular target: T3, Kallikrein-14 (Homo sapiens); experiment: Inhibition of human kallikrein14 using Boc-Val-Pro-Arg-AMC as substrate at 50 uM after 15 mins by fluorescence assay
Kallikrein-5 [17] = molecular target: T6, Kallikrein-5 (Homo sapiens, UniProt Q9Y337); experiment: Competitive inhibition of human kallikrein5 using Boc-Val-Pro-Arg-AMC as substrate after 15 to 60 mins by Lineweaver-Burk/Eadie-Hofstee plot analysis
T6 sequence (Q9Y337 whole entry): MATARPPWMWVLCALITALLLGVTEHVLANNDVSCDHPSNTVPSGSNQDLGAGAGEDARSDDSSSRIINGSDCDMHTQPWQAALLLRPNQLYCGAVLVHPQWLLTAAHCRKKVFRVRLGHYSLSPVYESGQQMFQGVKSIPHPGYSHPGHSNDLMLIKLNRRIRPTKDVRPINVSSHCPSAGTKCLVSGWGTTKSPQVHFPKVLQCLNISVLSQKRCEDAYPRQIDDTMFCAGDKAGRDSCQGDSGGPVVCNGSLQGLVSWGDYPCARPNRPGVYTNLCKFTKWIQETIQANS

Kallikrein-5 [18] = molecular target: T6, Kallikrein-5; experiment: Inhibition of human kallikrein5 using Boc-Val-Pro-Arg-AMC as substrate after 15 mins by fluorescence assay

Compound | Ratio Ki (Kallikrein-7 [3]) | Ki (Kallikrein-7 [4]) [µM] | Ki (Kallikrein-7 [5]) [µM] | inhibition [6] [%] | inhibition [7] | inhibition [8] | inhibition (Kallikrein-7 [9]) | inhibition [10] | IC50 [11] [µM] | IC50 (Kallikrein-14) [µM] | IC50 (Kallikrein-7 [12]) [µM] | inhibition [13] [%] | inhibition [15] [%] | inhibition [16] [%] | Ki (Kallikrein-5 [17]) [µM] | IC50 (Kallikrein-5 [18]) [µM] | Activity [1] | Activity [2] | Activity [14]
CCOc1cccc(NC(=O)/C(C#N)=C\c2ccc(OCC(=O)O)c(OC)c2)c1 | 2 | 140 | 95 | < 30 | Active | Active | Active | Active | 75 | 87 | 113 | < 30 |  |  |  |  | Non-toxic | Non-toxic | 
CCOc1cc(/C=C(/C#N)C(=O)Nc2ccc(O)cc2)ccc1O | 2 | 152 | 75 |  | Active | Active | Active | Active | 98 | 101 | 94 |  |  |  | 107 | 117 | Non-toxic | Non-toxic | 

More lines, main results first:

Ratio Ki (Kallikrein-7 [3]) | Ki (Kallikrein-7 [4]) [µM] | Ki (Kallikrein-7 [5]) [µM] | inhibition [6] [%] | inhibition [7] | inhibition [8] | inhibition (Kallikrein-7 [9]) | inhibition [10] | IC50 [11] [µM] | IC50 (Kallikrein-14) [µM] | IC50 (Kallikrein-7 [12]) [µM] | inhibition [13] [%] | inhibition [15] [%] | inhibition [16] [%] | Ki (Kallikrein-5 [17]) [µM] | IC50 (Kallikrein-5 [18]) [µM] | Compound | Activity [1] | Activity [2] | Activity [14]
2 | 44 | 15 | < 30 | Active | Active | Active | Active |  |  | 25 | < 30 | < 30 | < 30 |  |  | Nc1ccc2[nH]c(SCc3nc4ccccc4c(=O)n3-c3cccc(C(F)(F)F)c3)nc2c1 | Non-toxic | Non-toxic | Non-toxic
2 | 131 | 55 |  | Active | Active | Active | Active | 128 | 108 | 83 |  |  |  | 121 | 125 | COc1cc(/C=C(/C#N)c2nc3ccccc3[nH]2)ccc1OCC(=O)N1CCOCC1 | Non-toxic | Non-toxic | Non-toxic
2 | 166 | 50 | < 30 | Active | Active | Active | Active |  | 96 | 66 | < 30 | < 30 |  |  |  | CNC(=O)c1ccc(Nc2nnc(-c3ccc(O)cc3)c3ccccc23)cc1 | Non-toxic | Non-toxic | 
